In the CheMixHub viscosity set:

Test: xn = mol fraction of the nth substance listed

COCCOCCO + O=C1CCCN1
298.15 K, 101 kPa
Details | viscosity [mPa·s]
x1 = 0.0019 | 14.15
x1 = 0.0054 | 14.04
x1 = 0.0129 | 13.78
x1 = 0.0209 | 13.49
x1 = 0.0311 | 13.16
x1 = 0.0482 | 12.66
x1 = 0.0682 | 12.11
x1 = 0.0864 | 11.61
x1 = 0.1139 | 10.99
x1 = 0.1615 | 9.962
x1 = 0.2074 | 9.178
x1 = 0.2531 | 8.449
x1 = 0.2817 | 8.045
x1 = 0.3289 | 7.543
x1 = 0.3814 | 7.009
x1 = 0.4684 | 6.246
x1 = 0.489 | 6.106
x1 = 0.5396 | 5.741
x1 = 0.6097 | 5.295
x1 = 0.6687 | 4.976
x1 = 0.7169 | 4.749
x1 = 0.7652 | 4.502
x1 = 0.8144 | 4.294
x1 = 0.8697 | 4.069
x1 = 0.8962 | 3.972
x1 = 0.9239 | 3.85
x1 = 0.9469 | 3.745
x1 = 0.9719 | 3.658
x2 = 0.0058 | 3.533
x2 = 0.0141 | 3.561

COC=O + O=C1CCCO1
298.15 K, 101.33 kPa
Details | viscosity [mPa·s]
x1 = 0.0499 | 1.589
x1 = 0.1025 | 1.457
x1 = 0.153 | 1.367
x1 = 0.2017 | 1.262
x1 = 0.2492 | 1.175
x1 = 0.303 | 1.08
x1 = 0.4004 | 0.913
x1 = 0.4594 | 0.821
x1 = 0.5053 | 0.747
x1 = 0.5599 | 0.678
x1 = 0.6177 | 0.611
x1 = 0.7071 | 0.515
x1 = 0.7556 | 0.456
x1 = 0.8 | 0.426
x1 = 0.8515 | 0.38
x1 = 0.9005 | 0.344
x1 = 0.9511 | 0.331

Cc1ccccc1C + O=C1CCCO1
viscosity [mPa·s], 101.33 kPa
Details | x2 = 0.1199 | x2 = 0.1801 | x2 = 0.2998 | x2 = 0.4005 | x2 = 0.5044 | x2 = 0.5994 | x2 = 0.7011 | x2 = 0.7885 | x2 = 0.9087
293.15 K | 0.907 | 0.955 | 1.054 | 1.145 | 1.248 | 1.351 | 1.472 | 1.584 | 1.75
298.15 K | 0.854 | 0.901 | 0.996 | 1.081 | 1.175 | 1.269 | 1.379 | 1.48 | 1.629
303.15 K | 0.795 | 0.839 | 0.927 | 1.006 | 1.093 | 1.178 | 1.276 | 1.367 | 1.502
308.15 K | 0.747 | 0.787 | 0.867 | 0.937 | 1.014 | 1.09 | 1.179 | 1.263 | 1.39

Cc1ccc(N)cc1 + O=[N+]([O-])c1ccccc1O
323.1 K, 101 kPa
Details | viscosity [mPa·s]
x2 = 0.296 | 1.835
x2 = 0.75 | 2.15

CCCCCCCCCCCC[P+](CC)(CC)CC.N#Cc1ccc[n-]1 + OCC(O)CO
100 kPa
Details | viscosity [mPa·s]
293.15 K, x1 = 0.542 | 941
293.15 K, x1 = 0.677 | 861
298.15 K, x1 = 0.003 | 864
298.15 K, x1 = 0.01 | 905
298.15 K, x1 = 0.343 | 974
298.15 K, x1 = 0.426 | 715
303.15 K, x1 = 0.041 | 788
303.15 K, x1 = 0.056 | 912
303.15 K, x1 = 0.196 | 957
303.15 K, x1 = 0.292 | 734

CCCCCCCCCCCC[P+](CC)(CC)CC.N#Cc1ccc[n-]1 + OCCN(CCO)CCO
viscosity [mPa·s], 100 kPa
Details | x1 = 0.035 | x1 = 0.091 | x1 = 0.207 | x1 = 0.28 | x1 = 0.473 | x1 = 0.687 | x1 = 0.809
293.15 K | 991 | – | 876 | 863 | 853 | 836 | 718
298.15 K | – | 675 | – | – | – | – | –

CCn1cc[n+](C)c1.F[B-](F)(F)F + OCCO
Details | viscosity [mPa·s]
313.15 K, 101 kPa, x1 = 0.7003 | 10.55
323.15 K, 100 kPa, x1 = 0.717 | 9.915
323.15 K, 101 kPa, x1 = 0.7997 | 9.913

Cc1ccc(N)cc1 + Oc1ccccc1
101 kPa
Details | viscosity [mPa·s]
303.1 K, x2 = 0.43 | 7.57
303.1 K, x2 = 0.507 | 8.64
303.1 K, x2 = 0.619 | 9.42
303.1 K, x2 = 0.652 | 9.62
303.1 K, x2 = 0.741 | 8.94
313.05 K, x2 = 0.111 | 2.632
313.05 K, x2 = 0.2288 | 3.352
313.05 K, x2 = 0.3265 | 4.09
313.05 K, x2 = 0.4169 | 4.82
313.05 K, x2 = 0.4949 | 5.43
313.05 K, x2 = 0.5828 | 6.015
313.05 K, x2 = 0.6568 | 6.29
313.05 K, x2 = 0.737 | 6.27
313.05 K, x2 = 0.8217 | 5.915
313.05 K, x2 = 0.9089 | 5.38

c1ccc(Oc2ccccc2)cc1 + c1ccc(-c2ccccc2)cc1
Details | viscosity [mPa·s]
293.15 K, 101 kPa, x1 = 0.705 | 4.35
298.15 K, 101 kPa, x1 = 0.705 | 3.78
298.15 K, 101 kPa, x1 = 0.85 | 3.71
298.95 K, 101.33 kPa, x1 = 0.715 | 3.66
303.15 K, 101 kPa, x1 = 0.85 | 3.32
308.15 K, 101 kPa, x1 = 0.705 | 2.94
308.15 K, 101 kPa, x1 = 0.85 | 2.93
309.85 K, 101.33 kPa, x1 = 0.715 | 2.84
313.15 K, 101 kPa, x1 = 0.55 | 2.63
313.15 K, 101 kPa, x1 = 0.705 | 2.61
313.15 K, 101 kPa, x1 = 0.85 | 2.61
314.15 K, 101.33 kPa, x1 = 0.715 | 2.57
318.65 K, 101.33 kPa, x1 = 0.715 | 2.4
321.95 K, 101.33 kPa, x1 = 0.715 | 2.29

CCCCCCCCCCO + c1ccccc1
viscosity [mPa·s], 100 kPa
Details | x2 = 0.0822 | x2 = 0.1563 | x2 = 0.2472 | x2 = 0.3611 | x2 = 0.4531 | x2 = 0.5602 | x2 = 0.6533 | x2 = 0.7528 | x2 = 0.8574 | x2 = 0.9496
293.15 K | 12.2 | 10.48 | 8.738 | 6.833 | 5.51 | 4.154 | 3.087 | 2.082 | 1.318 | 0.839
303.15 K | 8.134 | 6.872 | 5.555 | 4.197 | 3.332 | 2.5 | 1.888 | 1.361 | 0.925 | 0.656
313.15 K | 5.704 | 4.746 | 3.723 | 2.709 | 2.089 | 1.514 | 1.132 | 0.877 | 0.673 | 0.546
323.15 K | 4.088 | 3.345 | 2.548 | 1.757 | 1.34 | 1.012 | 0.796 | 0.644 | 0.536 | 0.461
